We go through three compounds from ChEMBL document CHEMBL4411268, “Phytosterol and γ-Oryzanol Conjugates: Synthesis and Evaluation of their Antioxidant, Antiproliferative, and Anticholesterol Activities” (2018).

The test system of one assay is HeLa. Put plainly: Antiproliferative activity against human HeLa cells assessed as growth inhibition after 72 hrs by MTT assay. In kind it is functional. (Tetrazolium dyes change colour on reduction, which living cells bring about.)
The next assay concerns MDA-MB-231. Put plainly: Antiproliferative activity against human MDA-MB-231 cells assessed as growth inhibition after 72 hrs by MTT assay. The settings on record: MDA-MB-231, 72 h. In kind it is functional.
Another assay relates to Daoy. Put plainly: Antiproliferative activity against human DaOY cells assessed as growth inhibition after 72 hrs by MTT assay. In kind it is functional.
A short description of assay [1]: Antioxidant activity assessed as DPPH radical scavenging activity at 0.18 umol/ml incubated for 30 mins under dark condition relative to control. In kind it is functional.
Assay [2] is described as follows: Metal chelating activity assessed as compound-Fe2+ complex formation by measuring chelated ferrous ion at 0.18 umol/ml preincubated with Mohr's salt followed by ferozine addition and measured after 10 mins.
Assay [3] is described as follows: Antioxidant activity against linoleic acid assessed as inhibition of beta-carotene bleaching at 0.18 umol/ml measured at 15 mins interval for 1 hr. In kind it is functional.

The structures appear in SMILES notation.

A word on the GI50: it is the concentration at which growth is held to half of that of the control. On to `COc1cccc2c1C(=O)c1c(O)c3c(c(O)c1C2=O)C[C@@](O)(C(=O)CO)C[C@@H]3O[C@H]1C[C@H](N)[C@H](O)[C@H](C)O1` [DOXORUBICIN], for which the concentration for 50% growth inhibition (GI50) in the assay with HeLa was 93 nM; in the assay with MDA-MB-231 it was 46 nM; with Daoy, 16 nM.

As usually defined, the inhibition is how much of the control response was suppressed. For `C=C(CC[C@@H](C)[C@H]1CC[C@@]2(C)[C@@H]3CC[C@H]4C(C)(C)[C@@H](OC(=O)[C@H](CSSC[C@H](NC(=O)OC(C)(C)C)C(=O)O[C@H]5CC[C@]67C[C@@]68CC[C@]6(C)[C@@H]([C@H](C)CCC(=C)C(C)C)CC[C@@]6(C)[C@@H]8CC[C@H]7C5(C)C)NC(=O)OC(C)(C)C)CC[C@@]45C[C@]35CC[C@]12C)C(C)C`, the inhibition in assay [1] was 0%; in assay [3], 5%. In addition, the Activity in assay [2] was 0%. The GI50 in the assay with HeLa, in the assay on MDA-MB-231 and in the assay on Daoy was over 10000 nM each time.

For the compound `O=c1c(O)c(-c2ccc(O)c(O)c2)oc2cc(O)cc(O)c12`, in assay [2], the Activity was determined as 22%.
